This is an account of results in patent US5519012A, “Inclusion complexes of optically active 1,4-dihydropyridines with methyl-β-cyclodextrin” (LEK, tovarna farmacevtskih in kemicnih izdelkov, d.d., …, priority 1992, dated 1996).

In brackets after ≈: the same amount, converted by molar mass. Structures can show the parent of a compound that is named as a salt.

One series can be described thus: physchem. The settings on record: water.
Series [1] can be described thus: Water solubility of racemic and optically active dihydropyridines, free or bound in inclusion complexes (room temperature, filtrates of saturated solutions, liquid chromatography). Particulars: for Water solubility, complex. HE-β-CD: bound in inclusion complex with HE-β-CD (2-hydroxyethyl-cyclodextrin); for Water solubility, complex. HP-β-CD: bound in inclusion complex with HP-β-CD (2-hydroxypropyl-cyclodextrin); for Water solubility, complex. Me-β-CD: bound in inclusion complex with Me-β-CD; for Water solubility, complex. β-CD: bound in inclusion complex with β-CD; for Water solubility of particular enantiomers (in words): (-) compared with (+) nicardipine.HCl; for Water solubility, uncomplex.: free form.

For series [2] the following is noted: one enantiomer versus the other; literature; cited from earlier work.
For series [3] the following is noted: by means of DIMEB (heptakis-(2,6-di-O-dimethyl)-β-cyclodextrin); cited from earlier work.

The compound `CCOC(=O)C1=C(COCCN)NC(C)=C(C(=O)OC)C1c1ccccc1Cl` (centres unmarked) [amlodipine besylate, 3-ethyl-5-methyl-2-[(2-aminoethoxy)methyl]-4-(2-chlorophenyl) 1,4-dihydro-6-methyl-3,5-pyridinedicarboxylate-monobenzensulfonate] came in with a solubility in the series “physchem” of 1.1 mg/mL. Besides, in series [1] (room temperature), the “Water solubility, complex. HE-β-CD” value amounted to 4.5 mg/mL; the “Water solubility, complex. HP-β-CD” value was 17.0 mg/mL; the “Water solubility, complex. Me-β-CD” value came out at 25.0 mg/mL; the “Water solubility, complex. β-CD” value was determined as 10.0 mg/mL. Besides, the “Water solubility (in words)” value in series [1] (comparison in words, inclusion complexes with Me-β-CD) is “improved water solubility”.

Regarding `COC(=O)C1=C(C)NC(C)=C(C(=O)OCCN(C)Cc2ccccc2)C1c1cccc([N+](=O)[O-])c1` (single isomer, unassigned; (+)) [(+) nicardipine], the “activity relative to the other enantiomer” value in series [2] was “three times higher activity”.

Regarding `COC(=O)C1=C(C)NC(C)=C(C(=O)OCCN(C)Cc2ccccc2)C1c1cccc([N+](=O)[O-])c1` (single isomer, unassigned; (-)) [(-)nicardipine.HCl], the “Water solubility of particular enantiomers (in words)” value in series [1] is listed as “different water solubilities”. For the same compound, in series [1] (room temperature), the “Water solubility, complex. HE-β-CD” value was found to be 54.2 mg/mL; the “Water solubility, complex. HP-β-CD” value stood at 68.0 mg/mL; the “Water solubility, complex. Me-β-CD” value was 127.4 mg/mL; the “Water solubility, complex. β-CD” value was 15.6 mg/mL. In addition, the “Water solubility, uncomplex.” value in series [1] (room temperature) was 0.1 mg/mL. For the same compound, the “Water solubility, complex. HP-β-CD (molar ratio 1:2)” value in series [1] (molar ratio of the complex (-)NC.HCl:HP CD amounts to 1:2, room temperature) was determined as 130.0 mg/mL.

In “physchem”, `CCOC(=O)C1=C(C)NC(C)=C(C(=O)OC)C1c1cccc([N+](=O)[O-])c1` (racemic) [(±)nitrendipine, 3-ethyl-5-methyl-1,4-dihydro-2,6-dimethyl-4-(3-nitrophenyl)-3,5-pyridinedicarboxylate] displayed a solubility of 0.0006 mg/mL (≈ 1.66 µM).

`COC(=O)C1=C(C)NC(C)=C(C(=O)OCCN(C)Cc2ccccc2)C1c1cccc([N+](=O)[O-])c1` (single isomer, unassigned; (+)) [(+)nicardipine.HCl]: the “Water solubility of particular enantiomers (in words)” value in series [1] is given as “different water solubilities”. Also, in series [1] (room temperature), the “Water solubility, complex. HE-β-CD” value came to 52.7 mg/mL; the “Water solubility, complex. HP-β-CD” value was found to be 59.9 mg/mL; the “Water solubility, complex. Me-β-CD” value was determined as 133.1 mg/mL; the “Water solubility, complex. β-CD” value is 15.8 mg/mL. Also, the “Water solubility, uncomplex.” value in series [1] (room temperature) amounted to 0.4 mg/mL.

On to `CCOC(=O)C1=C(C)NC(C)=C(C(=O)OC)C1c1cccc(Cl)c1Cl` (centres unmarked) [felodipine, ethylmethyl-1,4-dihydro-2,6-dimethyl-4-(2,3-dichlorophenyl)-3,5-pyridinedicarboxylate], for which, in the series “physchem”, the solubility is 0.0008 mg/mL (≈ 2.08 µM).

For `CCOC(=O)C1=C(COCCN)NC(C)=C(C(=O)OC)[C@H]1c1ccccc1Cl` (single isomer, unassigned) [R-(-) isomer of amlodipine], the “activity relative to the other enantiomer” value in series [2] is given as “substantially higher activity”.

Consider `COc1ccc2c(c1)c(CC(=O)O)c(C)n2C(=O)c1ccc(Cl)cc1` [indometacin], for which the “enhancement of water solubility” value in series [3] is on record as 20.4 times.

`COC(=O)C1=C(C)NC(C)=C(C(=O)OCCN(C)Cc2ccccc2)C1c1cccc([N+](=O)[O-])c1` (racemic) [(±)nicardipine.HCl, 2-(N-benzyl-N-methyl-amino)-ethylmethyl-2,6-dimethyl-4-(3-nitrophenyl) -1,4-dihydropyridine-3,5-dicarboxylatehydrochloride] gave a solubility in “physchem” of 1.5 mg/mL. Moreover, in series [1] (room temperature), the “Water solubility, complex. HE-β-CD” value is 53.8 mg/mL; the “Water solubility, complex. HP-β-CD” value is 97.9 mg/mL; the “Water solubility, complex. Me-β-CD” value stood at 145.8 mg/mL; the “Water solubility, complex. β-CD” value came to 54.8 mg/mL.

Usually solubility stands for how much of the substance goes into solution per volume.
